Assay results published in US9346812B2, “Substituted pyrrolopyrimidine compounds, compositions thereof, and methods of treatment therewith” (Signal Pharmaceutical LLC, priority 2013, dated 2016).

System: CAL51 cell proliferation
Test: Cell Titer Glo Proliferation Assay (CAL51)
Format: cell-based, human
Settings: Homo sapiens, CAL-51; CAL51 cell proliferation, 72 h, Cell Titer Glo luminescence; read-out: Act. Level
How it was run: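 CAL51 triple-negative breast cancer cells in DMEM or RPMI with 10% FBS were treated after overnight culture with serially diluted compound at 0.2% final DMSO. After 72 h, viability was read as CellTiter-Glo luminescence.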

Structure (SMILES)	IC50 [nM]
COc1cc(C(=O)N(C)C)ccc1Nc1nc(O[C@@H]2CCOC2)c2c(-c3ccc4nc(C)oc4c3)c[nH]c2n1 [Example 222, (R)-3-methoxy-N,N-dimethyl-4-(5-(2-methylbenzo[d]oxazol-6-yl)-4-(tetrahydrofuran-3-yloxy)-7H-pyrrolo[2,3-d]pyrimidin-2-ylamino)benzamide]	< 100
CNC(=O)c1ccc(Nc2nc(OC3CCOCC3)c3c(-c4ccc5nc(C)sc5c4)c[nH]c3n2)c(OC)c1 [Example 223, 3-methoxy-N-methyl-4-(5-(2-methylbenzo[d]thiazol-6-yl)-4-(tetrahydro-2H-pyran-4-yloxy)-7H-pyrrolo[2,3-d]pyrimidin-2-ylamino)benzamide]	< 100
COc1cc(C(=O)NC(C)(C)C)ccc1Nc1nc(OC2CCCC2)c2c(-c3ccc4nc(C)oc4c3)c[nH]c2n1 [Example 224, N-tert-butyl-4-(4-(cyclopentyloxy)-5-(2-methylbenzo[d]oxazol-6-yl)-7H-pyrrolo[2,3-d]pyrimidin-2-ylamino)-3-methoxybenzamide]	100 to 400
CNC(=O)c1ccc(Nc2nc(O[C@H]3CCOC3)c3c(-c4ccnn4C)c[nH]c3n2)c(C(C)C)c1 [Example 225, (S)-3-isopropyl-N-methyl-4-(5-(1-methyl-1H-pyrazol-5-yl)-4-(tetrahydrofuran-3-yloxy)-7H-pyrrolo[2,3-d]pyrimidin-2-ylamino)benzamide]	1000 to 10000
CNC(=O)c1ccc(Nc2nc(OC(C)C)c3c(-c4ccnn4C)c[nH]c3n2)c(OC)c1 [Example 226, 4-(4-isopropoxy-5-(1-methyl-1H-pyrazol-5-yl)-7H-pyrrolo[2,3-d]pyrimidin-2-ylamino)-3-methoxy-N-methylbenzamide]	1000 to 10000
COc1cc(-c2cnn(C)c2)ccc1Nc1nc(OC2CCCC2)c2c(-c3ccc4nc(C)oc4c3)c[nH]c2n1 [Example 227, 4-(cyclopentyloxy)-N-(2-methoxy-4-(1-methyl-1H-pyrazol-4-yl)phenyl)-5-(2-methylbenzo[d]oxazol-6-yl)-7H-pyrrolo[2,3-d] pyrimidin-2-amine]	100 to 400
COc1cc(-n2cccn2)ccc1Nc1nc(OC2CCCC2)c2c(-c3ccc4nc(C)oc4c3)c[nH]c2n1 [Example 228, 4-(cyclopentyloxy)-N-(2-methoxy-4-(1H-pyrazol-1-yl)phenyl)-5-(2-methylbenzo[d]oxazol-6-yl)-7H-pyrrolo[2,3-d]pyrimidin-2-amine]	100 to 400
COc1cc(C(=O)NC2CCCC2)ccc1Nc1nc(OC2CCCC2)c2c(-c3ccc4nc(C)oc4c3)c[nH]c2n1 [Example 229, N-cyclopentyl-4-(4-(cyclopentyl-oxy)-5-(2-methylbenzo[d]oxazol-6-yl)-7H-pyrrolo[2,3-d]pyrimidin-2-ylamino)-3-methoxybenzamide]	400 to 1000
COc1cc(C(=O)NC[C@@H](C)O)ccc1Nc1nc(OC2CCCC2)c2c(-c3ccc4nc(C)oc4c3)c[nH]c2n1 [Example 230, (R)-4-(4-(cyclopentyloxy)-5-(2-methylbenzo[d]oxazol-6-yl)-7H-pyrrolo[2,3-d]pyrimidin-2-ylamino)-N-(2-hydroxypropyl)-3-methoxybenzamide]	100 to 400
COc1cc(C(=O)N2CCC(O)CC2)ccc1Nc1nc(OC2CCCC2)c2c(-c3ccc4nc(C)oc4c3)c[nH]c2n1 [Example 231, (4-(4-(cyclopentyloxy)-5-(2-methylbenzo[d]oxazol-6-yl)-7H-pyrrolo[2,3-d]pyrimidin-2-ylamino)-3-methoxyphenyl)(4-hydroxy-piperidin-1-yl)methanone]	< 100
COc1cc(C(=O)NCCCO)ccc1Nc1nc(OC2CCCC2)c2c(-c3ccc4nc(C)oc4c3)c[nH]c2n1 [Example 232, 4-(4-(cyclopentyloxy)-5-(2-methylbenzo[d]oxazol-6-yl)-7H-pyrrolo[2,3-d]pyrimidin-2-ylamino)-N-(3-hydroxypropyl)-3-methoxybenzamide]	< 100
COc1cc(C(=O)N(C)CCO)ccc1Nc1nc(OC2CCCC2)c2c(-c3ccc4nc(C)oc4c3)c[nH]c2n1 [Example 233, 4-(4-(cyclopentyloxy)-5-(2-methylbenzo[d]oxazol-6-yl)-7H-pyrrolo[2,3-d]pyrimidin-2-ylamino)-N-(2-hydroxyethyl)-3-methoxy-N-methylbenzamide]	< 100
COc1cc(C(=O)NC(C)(C)CO)ccc1Nc1nc(OC2CCCC2)c2c(-c3ccc4nc(C)oc4c3)c[nH]c2n1 [Example 234, 4-(4-(cyclopentyloxy)-5-(2-methylbenzo[d]oxazol-6-yl)-7H-pyrrolo[2,3-d]pyrimidin-2-ylamino)-N-(1-hydroxy-2-methylpropan-2-yl)-3-methoxybenzamide]	100 to 400
Cc1nc2ccc(-c3c[nH]c4nc(Nc5ccc6c(c5)CNC6=O)nc(OC5CCCC5)c34)cc2o1 [Example 235, 5-(4-(cyclopentyloxy)-5-(2-methylbenzo[d]oxazol-6-yl)-7H-pyrrolo[2,3-d]pyrimidin-2-ylamino)isoindolin-1-one]	< 100
CNC(=O)c1ccc(Nc2nc(OC3CCOCC3)c3c(-c4ccnc(NC(C)=O)c4)c[nH]c3n2)c(OC)c1 [Example 236, 4-(5-(2-acetamidopyridin-4-yl)-4-(tetrahydro-2H-pyran-4-yloxy)-7H-pyrrolo[2,3-d]pyrimidin-2-ylamino)-3-methoxy-N-methylbenzamide]	< 100
COc1cc(C(=O)NC2CC(O)C2)ccc1Nc1nc(OC2CCCC2)c2c(-c3ccc4nc(C)oc4c3)c[nH]c2n1 (stereo not shown) [Example 238, 4-(4-(cyclopentyloxy)-5-(2-methylbenzo[d]oxazol-6-yl)-7H-pyrrolo[2,3-d]pyrimidin-2-ylamino)-N-((1s,3s)-3-hydroxycyclobutyl)-3-methoxybenzamide]	< 100
COc1cc(C(=O)N[C@H]2C[C@H](O)C2)ccc1Nc1nc(OC2CCCC2)c2c(-c3ccc4nc(C)oc4c3)c[nH]c2n1 [Example 239, 4-(4-(cyclopentyloxy)-5-(2-methylbenzo[d]oxazol-6-yl)-7H-pyrrolo[2,3-d]pyrimidin-2-ylamino)-N-((1r,3r)-3-hydroxycyclobutyl)-3-methoxybenzamide]	< 100
COc1cc(C(=O)NC[C@H](C)O)ccc1Nc1nc(OC2CCCC2)c2c(-c3ccc4nc(C)oc4c3)c[nH]c2n1 [Example 240, (S)-4-(4-(cyclopentyloxy)-5-(2-methylbenzo[d]oxazol-6-yl)-7H-pyrrolo[2,3-d]pyrimidin-2-ylamino)-N-(2-hydroxypropyl)-3-methoxybenzamide]	100 to 400
COc1cc(C(=O)N2CCC2)ccc1Nc1nc(OC2CCCC2)c2c(-c3ccc4nc(C)oc4c3)c[nH]c2n1 [Example 241, azetidin-1-yl(4-(4-(cyclopentyloxy)-5-(2-methylbenzo[d]oxazol-6-yl)-7H-pyrrolo[2,3-d]pyrimidin-2-ylamino)-3-methoxyphenyl) methanone]	< 100
COc1cc(C(=O)NC[C@H]2CCCO2)ccc1Nc1nc(OC2CCCC2)c2c(-c3ccc4nc(C)oc4c3)c[nH]c2n1 [Example 242, (R)-4-(4-(cyclopentyloxy)-5-(2-methylbenzo[d]oxazol-6-yl)-7H-pyrrolo[2,3-d]pyrimidin-2-ylamino)-3-methoxy-N-((tetrahydrofuran-2-yl)methyl)benzamide]	100 to 400
COc1cc(C(=O)NCC2CCOCC2)ccc1Nc1nc(OC2CCCC2)c2c(-c3ccc4nc(C)oc4c3)c[nH]c2n1 [Example 243, 4-(4-(cyclopentyloxy)-5-(2-methylbenzo[d]oxazol-6-yl)-7H-pyrrolo[2,3-d]pyrimidin-2-ylamino)-3-methoxy-N-((tetrahydro-2H-pyran-4-yl)methyl)benzamide]	100 to 400
Cc1nc2ccc(-c3c[nH]c4nc(Nc5ccc6c(c5)CN(C)C6=O)nc(OC5CCCC5)c34)cc2o1 [Example 244, 5-(4-(cyclopentyloxy)-5-(2-methylbenzo[d]oxazol-6-yl)-7H-pyrrolo[2,3-d]pyrimidin-2-ylamino)-2-methylisoindolin-1-one]	< 100
CNC(=O)c1ccc(Nc2nc(OC3CCCC3)c3c(-c4ccc(C(=N)N)cc4)c[nH]c3n2)c(OC)c1 [Example 245, 4-(5-(4-carbamimidoylphenyl)-4-(cyclopentyloxy)-7H-pyrrolo[2,3-d]pyrimidin-2-ylamino)-3-methoxy-N-methylbenzamide]	1000 to 10000
CNC(=O)c1ccc(Nc2nc(OC(C)(C)C)c3c(-c4ccc5nc(C)oc5c4)c[nH]c3n2)c(OC)c1 [Example 246, 4-(4-tert-butoxy-5-(2-methylbenzo[d]oxazol-6-yl)-7H-pyrrolo[2,3-d]pyrimidin-2-ylamino)-3-methoxy-N-methylbenzamide]	< 100
COc1cc(NC(C)=O)ccc1Nc1nc(OC2CCCC2)c2c(-c3ccc4nc(C)oc4c3)c[nH]c2n1 [Example 247, N-(4-(4-(cyclopentyloxy)-5-(2-methylbenzo[d]oxazol-6-yl)-7H-pyrrolo[2,3-d]pyrimidin-2-ylamino)-3-methoxyphenyl) acetamide]	100 to 400
COc1cc(C(=O)N(C)CCC#N)ccc1Nc1nc(OC2CCCC2)c2c(-c3ccc4nc(C)oc4c3)c[nH]c2n1 [Example 248, N-(2-cyanoethyl)-4-(4-(cyclo-pentyloxy)-5-(2-methylbenzo[d]oxazol-6-yl)-7H-pyrrolo[2,3-d]pyrimidin-2-ylamino)-3-methoxy-N-methylbenzamide]	< 100
COc1cc(C(=O)N2CCCC2)ccc1Nc1nc(OC2CCCC2)c2c(-c3ccc4nc(C)oc4c3)c[nH]c2n1 [Example 249, (4-(4-(cyclopentyloxy)-5-(2-methylbenzo[d]oxazol-6-yl)-7H-pyrrolo[2,3-d]pyrimidin-2-ylamino)-3-methoxyphenyl) (pyrrolidin-1-yl)methanone]	100 to 400
COc1cc(C(=O)N(C)C2CCOCC2)ccc1Nc1nc(OC2CCCC2)c2c(-c3ccc4nc(C)oc4c3)c[nH]c2n1 [Example 250, 4-(4-(cyclopentyloxy)-5-(2-methylbenzo[d]oxazol-6-yl)-7H-pyrrolo[2,3-d]pyrimidin-2-ylamino)-3-methoxy-N-methyl-N-(tetrahydro-2H-pyran-4-yl)benzamide]	100 to 400
